Reference: patent publication US7566731B2, “Hetaryl substituted homotetramic and homotetronic acids and their use thereof as pesticides” (Bayer CropScience AG, priority 2001, dated 2009)

Experiments:
Format in all cases: in vivo
[1] = system: larvae of the mustard beetle (Phaedon cochleariae); assay: Phaedon larvae test; details: after 7 days, cabbage leaves immersed
Method: (§1) To prepare a suitable active compound preparation, 1 part by weight of active compound is mixed with the stated amounts of solvent and emulsifier and the concentrate is diluted to the desired concentration with emulsifier-containing water. Cabbage leaves (Brassica oleracea) are treated by immersing in the active compound preparation of the desired concentration and populated with larvae of the mustard beetle (Phaedon cochleariae) while the leaves are still moist. After the desired time, the destruction rate is determined in %. 100% means that all the beetle larvae have been destroyed; 0% means that none of the beetle larvae have been destroyed.

[2] = system: two-spotted spider mite (Tetranychus urticae); assay: Tetranychus test (OP resistant/immersion treatment); details: 100 ppm; bean plants immersed
Method: To prepare a suitable active compound preparation, 1 part by weight of active compound is mixed with the stated amounts of solvent and emulsifier and the concentrate is diluted to the desired concentration with emulsifier-containing water. Bean plants (Phaseolus vulgaris) which are severely infested by all stages of the two-spotted spider mite (Tetranychus urticae) are immersed into an active compound preparation of the desired concentration. After the desired time, the efficacy is determined in %. 100% means that all of the spider mites have been destroyed; 0% means that none of the spider mites have been destroyed.

[3] = system: Meloidogyne incognita; assay: Meloidogyne test; details: active compound concentration 20 ppm; lettuce in sand
Method: To prepare a suitable active compound preparation, 1 part by weight of active compound is mixed with the stated amounts of solvent and emulsifier and the concentrate is diluted to the desired concentration with water. Containers are filled with sand, active compound solution, Meloidogyne incognita egg/larval suspension and lettuce seeds. The lettuce seeds germinate and the plantlets develop. The galls develop on the roots. After the desired time, the nematicidal efficacy is determined in % with reference to gall formation. 100% means that no galls were found; 0% means that the number of galls on the treated plants corresponds to that of the untreated control.

[4] = system: Digitaria; assay: Pre-emergence test, Digitaria; details: 125 g ai/ha, after three weeks
Method: (§2) To prepare a suitable active compound preparation, 1 part by weight of active compound is mixed with the stated amount of solvent, the stated amount of emulsifier is added, and the concentrate is diluted with water to the desired concentration. Seeds of the test plants are sown in normal soil. After approximately 24 hours, the soil is sprayed with the active compound preparation in such a way that the active compound quantities desired in each case are applied per unit area. The concentration of the spray mixture is chosen such that the active compound quantities desired in each case are applied in 1000 l of water/ha. After three weeks, the degree of damage to the plants is scored in % damage in comparison with the development of the untreated control. The figures denote: • 0%=no effect (like untreated control) • 100%=total destruction

[5] = system: fall armyworm caterpillars (Spodoptera frugiperda); assay: Spodoptera frugiperda test; details: 500 ppm; after 7 days; cabbage leaves immersed
Method: as §1, with “fall armyworm caterpillars (Spodoptera frugiperda)” for “mustard beetle (Phaedon cochleariae)”, “caterpillars” for “beetle larvae”

[6] = system: Setaria; assay: Post-emergence test, Setaria; details: 125 g ai/ha, after three weeks
Method: as §2, with “Test plants which have a height” for “Seeds”, “5 to 15 cm” for “the test plants”, “are” for “are sown in normal soil. After approximately 24 hours, the soil is”

[7] = system: Sugar beet; assay: Pre-emergence test, Sugar beet; details: 125 g ai/ha, after three weeks
Method: as §2

[8] = system: Lolium; assay: Pre-emergence test, Lolium; details: 125 g ai/ha, after three weeks
Method: as §2

[9] = system: Matricaria; assay: Pre-emergence test, Matricaria; details: 125 g ai/ha, after three weeks
Method: as §2

[10] = system: Alopecurus; assay: Post-emergence test, Alopecurus; details: 125 g ai/ha, after three weeks
Method: as §2, with “Test plants which have a height” for “Seeds”, “5 to 15 cm” for “the test plants”, “are” for “are sown in normal soil. After approximately 24 hours, the soil is”

[11] = system: Digitaria; assay: Post-emergence test, Digitaria; details: 125 g ai/ha, after three weeks
Method: as §2, with “Test plants which have a height” for “Seeds”, “5 to 15 cm” for “the test plants”, “are” for “are sown in normal soil. After approximately 24 hours, the soil is”

[12] = system: Wheat; assay: Post-emergence test, Wheat; details: 125 g ai/ha, after three weeks
Method: as §2, with “Test plants which have a height” for “Seeds”, “5 to 15 cm” for “the test plants”, “are” for “are sown in normal soil. After approximately 24 hours, the soil is”

[13] = system: green peach aphid (Myzus persicae); assay: Myzus test; details: 500 ppm; after 6 days; cabbage leaves immersed
Method: To prepare a suitable active compound preparation, 1 part by weight of active compound is mixed with the stated amounts of solvent and emulsifier and the concentrate is diluted to the desired concentration with emulsifier-containing water. Cabbage leaves (Brassica oleracea) which are severely infested by the green peach aphid (Myzus persicae) are treated by immersing into the active compound preparation of the desired concentration. After the desired time, the destruction rate is determined in %. 100% means that all of the aphids have been destroyed; 0% means that none of the aphids have been destroyed.

[14] = system: Sugar beet; assay: Post-emergence test, Sugar beet; details: 125 g ai/ha, after three weeks
Method: as §2, with “Test plants which have a height” for “Seeds”, “5 to 15 cm” for “the test plants”, “are” for “are sown in normal soil. After approximately 24 hours, the soil is”

[15] = system: Avena fatua; assay: Post-emergence test, Avena fatua; details: 125 g ai/ha, after three weeks
Method: as §2, with “Test plants which have a height” for “Seeds”, “5 to 15 cm” for “the test plants”, “are” for “are sown in normal soil. After approximately 24 hours, the soil is”

[16] = system: Setaria; assay: Pre-emergence test, Setaria; details: 125 g ai/ha, after three weeks
Method: as §2

SMILES	destruction rate ([1]; 1000 ppm)	destruction rate (efficacy) [2]	destruction rate (nematicidal efficacy with reference to gall formation) [3]	degree of damage to the plants (% damage), Digitaria [4]	destruction rate [5]	degree of damage to the plants (% damage), Setaria [6]	degree of damage to the plants (% damage), Sugar beet [7]	degree of damage to the plants (% damage), Lolium [8]	degree of damage to the plants (% damage), Matricaria [9]	degree of damage to the plants (% damage), Alopecurus [10]	destruction rate ([1]; 500 ppm)	degree of damage to the plants (% damage), Digitaria [11]	degree of damage to the plants (% damage), Wheat [12]	destruction rate [13]	degree of damage to the plants (% damage), Sugar beet [14]	degree of damage to the plants (% damage), Avena fatua [15]	degree of damage to the plants (% damage), Setaria [16]
Cc1sc(-c2ccc(Cl)cc2)nc1C1=C(O)CC(C)(C)NC1=O [Example I-1-a-1]	100%	98%	–	–	–	–	–	–	–	–	–	–	–	–	–	–	–
CCOC(=O)OC1=C(c2nc(-c3ccc(Cl)cc3)sc2C)C(=O)NC(C)(C)C1 [Example I-1-c-1]	–	–	100%	–	–	–	–	–	–	–	–	–	–	–	–	–	–
Cc1sc(-c2ccc(Cl)cc2)nc1C1=C(O)C(C)(C)C(C)(C)OC1=O [Example I-2-a-1]	–	100%	100%	100%	100%	100%	0%	100%	95%	90%	100%	95%	10%	90%	0%	90%	100%
